{
  "source": "paper PMC12549899",
  "about": "(Nature Communications, 2025)",
  "molecular_target": "T1, DrOTOP1 L205W (Danio rerio, UniProt Q7ZWK8, L205W)",
  "T1 construct": "A previously generated codon-optimized full-length DrOTOP1[8]; (UniProt: Q7ZWK8) construct; expressed in transfected cells; host or cells: HEK-293 (CRL-1573, ATCC)",
  "T1 sequence (Q7ZWK8 1-586 L205W)": "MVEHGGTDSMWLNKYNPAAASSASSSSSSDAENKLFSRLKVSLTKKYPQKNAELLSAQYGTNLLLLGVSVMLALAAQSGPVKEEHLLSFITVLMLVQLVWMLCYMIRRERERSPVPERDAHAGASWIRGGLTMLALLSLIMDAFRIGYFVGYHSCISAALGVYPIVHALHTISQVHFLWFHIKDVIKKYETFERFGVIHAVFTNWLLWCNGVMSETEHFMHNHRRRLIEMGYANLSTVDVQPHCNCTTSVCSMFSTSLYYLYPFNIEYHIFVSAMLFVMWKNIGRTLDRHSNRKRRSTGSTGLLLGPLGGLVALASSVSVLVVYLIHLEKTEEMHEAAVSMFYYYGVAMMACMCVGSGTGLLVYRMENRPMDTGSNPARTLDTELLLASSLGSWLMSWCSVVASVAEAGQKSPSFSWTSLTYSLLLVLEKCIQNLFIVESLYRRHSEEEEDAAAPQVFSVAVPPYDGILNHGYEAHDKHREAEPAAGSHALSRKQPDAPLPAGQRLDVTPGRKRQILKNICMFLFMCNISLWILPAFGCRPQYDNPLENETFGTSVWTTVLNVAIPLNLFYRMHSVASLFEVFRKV",
  "test": "Whole-cell patch-clamp, inhibition of acid-evoked currents, DrOTOP1 L205W",
  "assay_type": "cell-based, zebrafish (Danio rerio)",
  "conditions": "single cells or mean; for Inhibition of currents: 10 µM",
  "source_text": "To functionally test the significance of the two binding sites identified by cryo-EM, we generated point mutations of DrOTOP1 using the binding poses and conformational changes observed in DrOTOP1_C2.2 to guide our mutations. As per the binding pose that best fits our cryo-EM density, C2.2 forms the following interactions in the outer site: hydrophobic packing against many non-polar residues W126, G130, M133, L134, F271, F570, and M573, and π-stacking with W532 (Fig. 5A). In addition, C2.2 could potentially form H-bonds with E267, if the sidechain is protonated or a water bridge is present, and with H574 if it moves closer (Fig. 5A). Likewise, C2.36 presents a heterocyclic nitrogen that can potentially form a H-bond with E267, similarly, provided a protonation or water bridge is present (Fig. 5B). In addition, C2.36 forms a T-shaped π-stacking interaction with H574, whose sidechain has rotated 90 degrees (compared to DrOTOP1_apo), presumably to accommodate the interaction (Fig. 5B). Considering other inhibitors discovered from the second round of screening, many contain functional groups like the carbonyl groups of Group 1 molecules and the heterocyclic nitrogen atoms of Group 2 molecules (Supplementary Fig. 3E), that can potentially form similar H-bonds with E267 as C2.2 and C2.36, assuming the binding modes are similar. In the central site, C2.2 binds with the following interactions: hydrophobic packing with residues V201, F271, A274, V278, and A388, π-stacking with F277, and H-bonding with E384 (Fig. 5C).\nWe next tested mutations of the central site (L205W, A274W, F277A, E384A L385W, A388W). V201W and S389W, two additional central site mutations, were excluded from the study due to complete loss of channel activity. […]\nWhole-cell patch-clamp recording was performed as previously described[6],[22],[25]. Recordings were made with an Axopatch 200B amplifier, digitized with a Digidata 1322a 16-bit data acquisition system, acquired with pClamp 8.2 and analyzed with Clampfit 10 (Molecular Devices). […]",
  "note": "Where “and” joins values, the source holds several entries; their conditions need not be identical. Equal values may be shown once.",
  "data": [
    {"smiles": "C=C(C)COc1ccccc1NC(=O)c1nc[nH]c1C", "note": "[C2.2]", "values": [
      {"measurement": "Inhibition of currents", "setting": "mean", "result": 69.03, "unit": "%"},
      {"measurement": "Inhibition of currents", "setting": "single cells", "result": "76.6896% and 67.1049% and 68.1116% and 69.0311%"},
      {"measurement": "inhibition at 10 µM", "result": 64.2, "unit": "%"}
    ]}
  ]
}
